From EP1826201A1, “Substituted phenylpiperidine derivatives as melanocortin-4 receptor modulators” (Santhera Pharmaceuticals (Schweiz) AG, priority 2006, dated 2007)

Key:
[1] = biological target: T1, hMC-4R (Homo sapiens, UniProt P32245); test: Functional assay (membrane based cAMP fluorescence polarization assay, agonistic activity); format: biochemical; conditions: for % activation functional assay / Emax: cAMP produced compared to stimulation with NDP-alpha-MSH; for Emax: read-out: % activation functional assay; for EC50: membrane preparations from HEK293 cells expressing the human melanocortin receptors, cAMP production
T1 construct: expressed in transfected cells; host or cells: HEK293
T1 sequence (P32245 whole entry): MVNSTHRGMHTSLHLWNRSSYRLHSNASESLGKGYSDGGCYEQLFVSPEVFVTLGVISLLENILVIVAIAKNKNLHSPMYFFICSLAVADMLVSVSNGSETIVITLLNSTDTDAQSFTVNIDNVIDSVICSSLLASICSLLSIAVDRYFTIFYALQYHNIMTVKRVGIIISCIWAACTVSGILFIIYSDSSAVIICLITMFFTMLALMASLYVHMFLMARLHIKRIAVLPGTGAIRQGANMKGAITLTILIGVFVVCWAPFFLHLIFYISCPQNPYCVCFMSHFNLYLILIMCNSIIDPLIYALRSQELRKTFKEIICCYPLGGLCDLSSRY
Experimental: Agonistic activity of human melanocortin receptors is determined in a homogeneous membrane based assay.
Membrane preparations from HEK293 cells expressing the human melanocortin receptors are added. After a short preincubation period, an appropriate amount of ATP, GTP and the cAMP antibody is added and the plate is further incubated before the fluorescence labeled cAMP conjugate is dispensed. The plate is incubated for 2 h at 4°C before it is read on a fluorescence polarization microplate reader. The amount of cAMP produced as a response to a test compound is compared to the production of cAMP resulting from stimulation with NDP-alpha-MSH.

[2] = biological target: T1, hMC-4R; test: Membrane binding assay (fluorescence polarization, competition with fluorescence labeled NDP-alpha-MSH); conditions: HEK293 cell membrane preparations expressing human melanocortin receptors; 5 h at room temperature

| Compound | % activation functional assay [1] | IC50 [2] | Emax [1] | EC50 [1] |
| --- | --- | --- | --- | --- |
| NC(Cc1ccc(Cl)cc1Cl)C(=O)N1CCC(c2ccccc2OCCN2CCCC2)CC1 (centres unmarked) [Example 1] | no activation | 0.13 µM |  |  |
| NC(Cc1ccc(Cl)cc1Cl)C(=O)N1CCC(c2ccc(F)cc2OCCN2CCCC2)CC1 (centres unmarked) [Example 2] |  | 0.064 µM | 22% |  |
| NC(Cc1ccc(Cl)cc1Cl)C(=O)N1CCC(c2ccc(Cl)cc2OCCN2CCCC2)CC1 (centres unmarked) [Example 3] | no activation | 0.028 µM |  |  |
| NC(Cc1ccc(Cl)cc1Cl)C(=O)N1CCC(c2cc(F)c(F)cc2OCCN2CCCC2)CC1 (centres unmarked) [Example 7] |  | 0.057 µM | 29% |  |
| NC(Cc1ccc(Cl)cc1)C(=O)N1CCC(c2ccccc2OCCN2CCCC2)CC1 (centres unmarked) [Example 101] |  | 0.47 µM | 78% | 1.6 µM |
| NC(Cc1ccc(Cl)cc1)C(=O)N1CCC(c2cc(F)ccc2OCCN2CCCC2)CC1 (centres unmarked) [Example 105] |  | 0.26 µM | 90% | 0.57 µM |
| NC(Cc1ccc(Cl)cc1)C(=O)N1CCC(c2cc(Cl)ccc2OCCN2CCCC2)CC1 (centres unmarked) [Example 106] |  | 0.15 µM | 87% | 0.23 µM |
| NC(Cc1ccc(Cl)cc1)C(=O)N1CCC(c2ccc(Cl)cc2OCCCN2CCCCC2)CC1 (centres unmarked) [Example 110] |  | 0.19 µM | 73% | 0.28 µM |
| NC(Cc1ccc(Cl)cc1)C(=O)N1CCC(c2cc(F)c(F)cc2OCCN2CCCC2)CC1 (centres unmarked) [Example 111] |  | 0.31 µM | 75% | 0.17 µM |
| NC(Cc1ccc(Cl)cc1)C(=O)N1CCC(c2cc(F)c(F)cc2OCCN2CCCCC2)CC1 (centres unmarked) [Example 112] |  | 0.26 µM | 73% | 0.11 µM |
| NC(Cc1ccc(Cl)cc1)C(=O)N1CCC(c2ccccc2CCCN2CCCC2)CC1 (centres unmarked) [Example 113] |  | 0.79 µM | 78% | 1.1 µM |
| NC(Cc1ccc(Cl)cc1)C(=O)N1CCC(c2ccc(F)cc2CCCN2CCCC2)CC1 (centres unmarked) [Example 114] |  | 0.29 µM | 89% | 0.64 µM |
